Results on 4 compounds are retold here after ChEMBL document CHEMBL1143455 (Bioorg Med Chem Lett, 2005).

Assay [1] concerns the target T1, Prostaglandin G/H synthase 2 (Mus musculus, UniProt Q05769).
T1 sequence (Q05769 whole entry): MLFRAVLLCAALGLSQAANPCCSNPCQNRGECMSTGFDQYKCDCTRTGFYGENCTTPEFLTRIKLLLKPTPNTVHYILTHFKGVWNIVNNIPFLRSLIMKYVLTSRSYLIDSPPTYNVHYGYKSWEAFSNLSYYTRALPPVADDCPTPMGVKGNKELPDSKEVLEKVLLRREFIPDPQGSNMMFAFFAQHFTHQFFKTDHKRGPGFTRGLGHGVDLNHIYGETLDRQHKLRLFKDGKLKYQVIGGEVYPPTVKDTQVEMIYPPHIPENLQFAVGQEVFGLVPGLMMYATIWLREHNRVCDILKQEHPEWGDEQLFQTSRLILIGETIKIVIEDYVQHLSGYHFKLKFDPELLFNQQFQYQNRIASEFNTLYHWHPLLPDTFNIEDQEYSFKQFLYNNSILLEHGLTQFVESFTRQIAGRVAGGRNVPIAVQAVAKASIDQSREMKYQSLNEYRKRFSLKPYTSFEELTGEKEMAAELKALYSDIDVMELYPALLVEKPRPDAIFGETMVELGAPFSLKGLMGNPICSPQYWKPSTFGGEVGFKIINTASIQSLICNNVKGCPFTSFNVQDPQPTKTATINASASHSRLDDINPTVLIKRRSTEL
Kind of assay: Tested for prostaglandin E2 production as a function of COX-2 inhibition using endotoxin-treated murine RAW 264.7 macrophages. The format is functional.

For assay [2], the target named is T2, Prostaglandin G/H synthase 2 (Homo sapiens, UniProt P35354).
T2 sequence (P35354 whole entry): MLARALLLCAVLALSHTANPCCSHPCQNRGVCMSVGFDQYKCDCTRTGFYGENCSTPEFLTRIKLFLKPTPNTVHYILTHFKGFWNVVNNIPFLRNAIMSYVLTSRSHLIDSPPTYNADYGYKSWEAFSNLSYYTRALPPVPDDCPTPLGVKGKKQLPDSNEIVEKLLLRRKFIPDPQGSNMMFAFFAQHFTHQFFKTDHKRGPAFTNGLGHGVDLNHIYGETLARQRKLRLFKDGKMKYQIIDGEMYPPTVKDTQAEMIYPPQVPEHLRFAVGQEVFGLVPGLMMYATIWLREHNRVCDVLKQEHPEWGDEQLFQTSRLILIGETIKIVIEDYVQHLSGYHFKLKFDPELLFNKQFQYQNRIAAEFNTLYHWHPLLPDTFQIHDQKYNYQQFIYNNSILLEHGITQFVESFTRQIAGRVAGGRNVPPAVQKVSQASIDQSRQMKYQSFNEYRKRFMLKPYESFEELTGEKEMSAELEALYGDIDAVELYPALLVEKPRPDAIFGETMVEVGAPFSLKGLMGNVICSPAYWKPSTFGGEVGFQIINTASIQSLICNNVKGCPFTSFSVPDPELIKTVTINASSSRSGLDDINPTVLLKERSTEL
Description: Inhibitory activity against human recombinant cyclooxygenase 2

As for `NS(=O)(=O)c1ccc(-c2c(-c3ccccc3)noc2CCF)cc1`, the IC50 in assay [1] came to 2 nM; in assay [2], 8 nM.

Regarding `NS(=O)(=O)c1ccc(-c2c(-c3ccccc3)noc2CF)cc1`, the IC50 in assay [1] was determined as 2 nM.

`Cc1onc(-c2ccccc2)c1-c1ccc(S(N)(=O)=O)c(F)c1`: the IC50 in assay [1] amounted to 2 nM.

Turning to `Cc1onc(-c2ccc(F)cc2)c1-c1ccc(S(N)(=O)=O)cc1`, the IC50 in assay [1] is 2 nM. This lies in the single-digit nanomolar range.
